# Columns and labels:
# S. aureus (20666) = assay: MIC, Macro-broth dilution method; format: cell-based, Staphylococcus aureus
# Text: (§1) The in-vitro potency was established by minimum inhibitory concentration (MIC) determinations of the compound PM181104 against bacterial strains, by using the Macro-broth dilution method as per National Committee for Clinical Laboratory Standards (2000) guidelines [Journal of Anti-microbial Chemotherapy, 2002, 50, 125-128 (Cross Reference 8: Methods for Dilution Antimicrobial Susceptibility Tests for Bacteria that Grow Aerobically-Fifth Edition: Approved Standard M7-A5. NCCLS, Wayne, Pa., USA)]. Unless stated otherwise, Mueller-Hinton broth was used as nutrient medium for the assay. Linezolid (manufactured by Glenmark Pharma Ltd; Batch no: K2005028) was used as known standard in all in-vitro experiments. For preparation of the stock solution the compound PM181104 was dissolved in chloroform (5% of the total required volume) and diluted using methanol (95% of the total required volume).
# S. aureus (3066) = assay: MIC, Macro-broth dilution method; format: cell-based, Staphylococcus aureus
# Text: as §1
# S. aureus (789) = assay: MIC, Macro-broth dilution method; format: cell-based, Staphylococcus aureus
# Text: as §1
# S. aureus (E710) = assay: MIC, Macro-broth dilution method; format: cell-based, Staphylococcus aureus; conditions: S. aureus MRSA E710
# Text: as §1
# S. aureus ATCC29213 = assay: MIC, Macro-broth dilution method; format: cell-based, Staphylococcus aureus
# Text: as §1
# S. aureus Bom-MRSA2 = assay: MIC, Macro-broth dilution method; format: cell-based, Staphylococcus aureus
# Text: as §1
# S. aureus C1 3184 = assay: MIC, Macro-broth dilution method; format: cell-based, Staphylococcus aureus
# Text: as §1
# S. aureus KEM-MRSA11 = assay: MIC, Macro-broth dilution method; format: cell-based, Staphylococcus aureus
# Text: as §1
# S. aureus KEM-MRSA12 = assay: MIC, Macro-broth dilution method; format: cell-based, Staphylococcus aureus
# Text: as §1
# S. aureus KEM-MRSA18 = assay: MIC, Macro-broth dilution method; format: cell-based, Staphylococcus aureus
# Text: as §1
# S. aureus KEM-MRSA19 = assay: MIC, Macro-broth dilution method; format: cell-based, Staphylococcus aureus
# Text: as §1
# S. aureus KEM-MRSA1 = assay: MIC, Macro-broth dilution method; format: cell-based, Staphylococcus aureus
# Text: as §1
# S. aureus KEM-MRSA20 = assay: MIC, Macro-broth dilution method; format: cell-based, Staphylococcus aureus
# Text: as §1
# S. aureus KEM-MRSA21 = assay: MIC, Macro-broth dilution method; format: cell-based, Staphylococcus aureus
# Text: as §1
# S. aureus KEM-MRSA22 = assay: MIC, Macro-broth dilution method; format: cell-based, Staphylococcus aureus
# Text: as §1
# S. aureus KEM-MRSA23 = assay: MIC, Macro-broth dilution method; format: cell-based, Staphylococcus aureus
# Text: as §1
# S. aureus KEM-MRSA24 = assay: MIC, Macro-broth dilution method; format: cell-based, Staphylococcus aureus
# Text: as §1
# S. aureus KEM-MRSA25 = assay: MIC, Macro-broth dilution method; format: cell-based, Staphylococcus aureus
# Text: as §1
# S. aureus KEM-MRSA2 = assay: MIC, Macro-broth dilution method; format: cell-based, Staphylococcus aureus
# Text: as §1
# S. aureus KEM-MRSA7 = assay: MIC, Macro-broth dilution method; format: cell-based, Staphylococcus aureus
# Text: as §1
# S. aureus KEM-MRSA8 = assay: MIC, Macro-broth dilution method; format: cell-based, Staphylococcus aureus
# Text: as §1
# S. aureus Lilavati-MRSA3 = assay: MIC, Macro-broth dilution method; format: cell-based, Staphylococcus aureus
# Text: as §1
# S. aureus Rehaja-MRSA1 = assay: MIC, Macro-broth dilution method; format: cell-based, Staphylococcus aureus
# Text: as §1
# S. aureus SG511 = assay: MIC, Macro-broth dilution method; format: cell-based, Staphylococcus aureus
# Text: as §1
# S. aureus wien13 = assay: MIC, Macro-broth dilution method; format: cell-based, Staphylococcus aureus
# Text: as §1
# S. aureus wien8 = assay: MIC, Macro-broth dilution method; format: cell-based, Staphylococcus aureus
# Text: as §1
# B. megaterium FH 1127 = assay: MIC, Macro-broth dilution method; format: cell-based, Bacillus megaterium
# Text: as §1
# B. firmus = assay: MIC, Macro-broth dilution method; format: cell-based, Bacillus firmus
# Text: as §1
# S. aureus E-710 = assay: Neutropenic thigh model; format: in vivo, Balb/C mice; conditions: 5 mg/kg intravenously two hours post infection, 6 hour time point
# Text: (§2) The in-vivo potency was established by protection dose (PD) determinations of the compound PM181104 for its antibiotic activity in three animal models using either male or female Balb/C mice.
# (§3) The models used were the general purpose efficacy testing models and organ/tissue specific efficacy testing models. The general purpose efficacy testing models used were systemic infection model (septicemia), and localized infection model (neutropenic thigh model). The Organ/Tissue specific infection models used for efficacy testing were kidney, lung infection, and skin abscess model.
# Each experimental group consisted of six animals. PM181104 was prepared in cremophor-ethanol formulation as described in example 14.
# [1] = test system: methicillin resistant S. aureus E710 (MRSA); format: in vivo, Balb/C mice; conditions: 5 mg/kg intravenously two hours post infection
# Text: as §2, §3
# Balb/C mice were infected subcutaneously with approximately 10^8 cfu of an overnight grown culture of methicillin resistant S. aureus E710 (MRSA). The bacteria were suspended in 1:1 mixture of 2% cytodex beads in normal saline (0.85% sodium chloride). PM181104 was prepared in cremophor-ethanol formulation as described in example 14. The solution was administered intravenously at 2.5 mg, 5 mg and 10 mg/kg doses, two hours post infection. Each experimental group consisted of six animals. Following abscess formation the animals were sacrificed and abscess harvested to determine the viable counts. […] Linezolid (manufactured by Glenmark Pharma Ltd; Batch no: K2005028) at 50 mg/kg dose.
# [2] = solvents in which soluble
# Text: The physico-chemical and spectral properties of the compound PM181104
smiles,measurement,setting,value
C=C(NC(=O)C(=C)NC(=O)C1CCCN1C(=O)c1nc(-c2ccc(-c3nc(C(=O)NC(=C)C(=O)NC(C)C(N)=O)cs3)c(-c3csc(C4Cc5nc(cs5)C(=O)NC(Cc5ccccc5)C5=NC(CS5)C(=O)NC(Cc5ccc(O)cc5)C(=O)N5CCCC5c5nc(cs5)C(=O)N4)n3)n2)oc1C)C(N)=O (stereo not shown) [PM181104],MIC,S. aureus (20666),0.01563 µg/mL
same,MIC,S. aureus (3066),0.03125 µg/mL
same,MIC,S. aureus (789),0.00781 µg/mL
same,MIC,S. aureus (E710),0.03125 µg/mL
same,MIC,S. aureus ATCC29213,0.03125 µg/mL
same,MIC,S. aureus Bom-MRSA2,0.0625 µg/mL
same,MIC,S. aureus C1 3184,0.0625 µg/mL
same,MIC,S. aureus KEM-MRSA11,0.0625 µg/mL
same,MIC,S. aureus KEM-MRSA12,0.01563 µg/mL
same,MIC,S. aureus KEM-MRSA18,0.01563 µg/mL
same,MIC,S. aureus KEM-MRSA19,0.00781 µg/mL
same,MIC,S. aureus KEM-MRSA1,0.03125 µg/mL
same,MIC,S. aureus KEM-MRSA20,0.01563 µg/mL
same,MIC,S. aureus KEM-MRSA21,0.01563 µg/mL
same,MIC,S. aureus KEM-MRSA22,0.00781 µg/mL
same,MIC,S. aureus KEM-MRSA23,0.01563 µg/mL
same,MIC,S. aureus KEM-MRSA24,0.00781 µg/mL
same,MIC,S. aureus KEM-MRSA25,0.01563 µg/mL
same,MIC,S. aureus KEM-MRSA2,0.03125 µg/mL
same,MIC,S. aureus KEM-MRSA7,0.01563 µg/mL
same,MIC,S. aureus KEM-MRSA8,0.01563 µg/mL
same,MIC,S. aureus Lilavati-MRSA3,0.01563 µg/mL
same,MIC,S. aureus Rehaja-MRSA1,0.03125 µg/mL
same,MIC,S. aureus SG511,0.0625 µg/mL
same,MIC,S. aureus wien13,0.0625 µg/mL
same,MIC,S. aureus wien8,0.01563 µg/mL
same,MIC,B. megaterium FH 1127,0.00781 µg/mL
same,MIC,B. firmus,0.01563 µg/mL
same,decrease in viable counts in thigh tissue,S. aureus E-710,approximately 1 log
same,decrease in bacterial count in abscess,[1],approximately 1 log
same,Solubility,[2],"Methanol, DMSO"
